How the values were obtained:
psoriasis of the scalp = assay: Case report: treatment of psoriasis of the scalp in an adult with OCD using Metronidazole (Example 1); type: in vivo, human
From the text: A patient with Obsessive-Compulsive Personality Disorder (OCD) commenced treatment in April 2016 with two non-absorbable antibiotics (vancomycin and rifaximin), together with the absorbable Metronidazole. The aim was to suppress their gut bacteria to reduce the OCD.

[1] = test system: extensive plaque psoriasis; assay: Case report: treatment of psoriasis with Clofazimine, Rifampicin, Tinidazole, Enbrel (Example 4); type: in vivo, human
Experimental: It was at this time that antibiotics were added to the etanercept (Enbrel™).

Compound: Cc1ncc([N+](=O)[O-])n1CCO [Metronidazole]
- psoriasis of the scalp (psoriasis of the scalp; patient, Metronidazole given with non-absorbable vancomycin and rifaximin from April 2016, by November of 2016): marked suppression of the psoriasis of the scalp
- psoriasis of the scalp (psoriasis of the scalp; same patient, by February of 2017): very little psoriasis left on the scalp

Compound: etanercept
- response of psoriasis on continued treatment ([1]; in spite of many months of injections, before antibiotics were added): the response stalled
- response of psoriasis ([1]; person, before antibiotics were added): reduction of the surface area of their body covered by psoriasis plaque

Compound: CN(Cc1cnc2nc(N)nc(N)c2n1)c1ccc(C(=O)N[C@@H](CCC(=O)O)C(=O)O)cc1 [Methotrexate]
- adverse effects ([1]; person, steroid-dependent extensive psoriasis): unacceptable adverse effects

— US20230414584A1, “ADMINISTRATION OF ANTIBIOTIC COMPOUNDS FOR THE TREATMENT OF STREPTOCOCCAL INFECTIONS FOR THE TREATMENT OF PSORIASIS” (CENTRE FOR DIGESTIVE DISEASES, priority 2017, published 2023)
